Measurements as given in patent US9765073B2, “Cyclopropabenzofuranyl pyridopyrazinediones” (Pfizer Inc., priority 2015, dated 2017).

What follows are compounds tested on γ-secretase (assay: Cell-Based γ-Secretase Assay with ELISA Readout). Conditions: comparison of the Table 7 potencies of separated enantiomers.
Set-up: species or system human
Protocol: The ability of compounds to modulate production of amyloid beta protein Aβ(1-42) was determined using human WT-APP overexpressing CHO cells. Cells were plated at 22,000 cells/100 μL well in 96 well tissue culture treated, clear plates (Falcon) in DMEM/F12 based medium and incubated for 24 h at 37° C. Compounds for testing were diluted in 100% DMSO to achieve an eleven point, half log, dose response for IC50 determinations. Compounds were added in fresh medium to achieve 1% final DMSO. Appropriate vehicle or inhibitor controls were added into control wells individually to obtain minimum or maximum inhibition values, respectively, for the assay signal window before the plates were incubated for ˜24 h at 37° C. This procedure produces conditioned media in each well, which is tested for Aβ(1-42) levels in the ELISA detection step described next. The remaining cell cultures in each well are also tested for cell toxicity as described below.
Coating of ELISA assay plates was initiated by addition of 50 μL/well of an in-house Aβ(1-42) specific antibody (3 μg/mL) in 0.1 M NaHCO3 (pH 9.0) into black 384-well Maxisorp® plates (Nunc); incubation was carried out overnight at 4° C. The capture antibody was then aspirated from the ELISA assay plates and plates were washed either 2×100 μL with a Matrical Squirt plate washer, or 3×90 μL with a Thermo Combi, using Wash Buffer (Dulbecco's PBS, 0.05% Tween 20). 90 μL/well of Blocking Buffer (Dulbecco's PBS, 1.0% BSA (Sigma A7030) was then added to plates. Ambient temperature incubation was allowed to proceed for a minimum of 2 h. Blocking Buffer was then removed and 20 μL/well Assay Buffer (Dulbecco's PBS, 1.0% BSA (Sigma A7030), 0.05% Tween 20) was then added. At this point, 35 μL (40 μL prior to August, 2012) (in duplicate) of experimental conditioned media (described above) was transferred into wells of the blocked ELISA plates containing the capture antibody, followed by overnight incubation at 4° C. Cell toxicity was also measured in the corresponding remaining cells after removal of the conditioned media for the Aβ(1-42) assay by a colorimetric cell proliferation assay (CellTiter 96® AQueous One Solution Cell Proliferation Assay, Promega) according to the manufacturer's instructions.
After overnight incubation of the ELISA assay plates at 4° C., unbound Aβ peptides were removed via either 2×100 μL washes with a Matrical Squirt plate washer, or 3×90 μL washes with a Thermo Combi, using Wash Buffer. Europium (Eu) labeled (custom labeled, PerkinElmer) Aβ(1-16) 6e10 Monoclonal Antibody (Covance #SIG-39320) was added, (50 μL/well Eu-6e10@1:10,000, 20 uM EDTA) in Assay Buffer. Incubation at ambient temperature for a minimum of 2 h was followed by either 2×100 μL washes with a Matrical Squirt plate washer, or 3×90 μL washes with a Thermo Combi, using Wash Buffer, before 30 μL/well of Delfia Enhancement Solution (PerkinElmer) was added. Following 30 to 60 min ambient temperature incubation, the plates were read on an EnVision plate reader (PerkinElmer) using standard DELFIA TRF settings. Data analysis including inhibitory IC50 determination was performed using nonlinear regression fit analysis (in-house software) and the appropriate plate mean values for the maximum and minimum inhibition controls.

SMILES | potency compared with its enantiomer
Cc1cn(-c2ccc3n(c2=O)CCN(C[C@@]24C[C@]2(C)Oc2ccc(OC(F)(F)F)cc24)C3=O)cn1 (single isomer, unassigned) [Example 2] | more potent than its enantiomer 3

Same assay, conditions: production of Aβ(1-42) in human WT-APP overexpressing CHO cells, ~24 h; footnote a = single determination, footnote b = geometric mean of ≧5 determinations; read-out: Aβ 42B IC50 (nM) Geometric mean of 2-4 determinations (unless otherwise indicated)

SMILES | IC50 [nM]
Cc1cn(-c2ccc3n(c2=O)CCN(CC24CC2(C)Oc2c(F)cc(OC(F)(F)F)cc24)C3=O)cn1 (racemic) [Example C33, 2-{[3-fluoro-1a-methyl-5-(trifluoromethoxy)-1,1a-dihydro-6bH-cyclopropa[b][1]benzofuran-6b-yl]methyl}-7-(4-methyl-1H-imidazol-1-yl)-3,4-dihydro-2H-pyrido[1,2-a]pyrazine-1,6-dione] | 9.3
Cc1cn(-c2ccc3n(c2=O)CCN(C[C@@]24C[C@]2(C)Oc2ccc(OC(F)(F)F)cc24)C3=O)cn1 (single isomer, unassigned) [Example 2] | 6.5
Cc1cn(-c2ccc3n(c2=O)CCN(C[C@]24C[C@@]2(C)Oc2ccc(OC(F)(F)F)cc24)C3=O)cn1 (single isomer, unassigned) [Example 3] | 59.2
Cc1cn(-c2ccc3n(c2=O)CCN(C[C@]24C[C@@]2(C)Oc2c(F)cc(OC(F)(F)F)cc24)C3=O)cn1 (single isomer, unassigned) [Example 5] | 59.2
Cc1cn(-c2ccc3n(c2=O)CCN(C[C@@]24C[C@]2(C)Oc2cc(F)c(OC(F)(F)F)cc24)C3=O)cn1 (single isomer, unassigned) [Example 6] | 7
Cc1cn(-c2ccc3n(c2=O)CCN(C[C@]24C[C@@]2(C)Oc2cc(F)c(OC(F)(F)F)cc24)C3=O)cn1 (single isomer, unassigned) [Example 7] | 38
Cc1cn(-c2ccc3n(c2=O)CCN(C[C@@]24C[C@]2(C)Oc2cc(Cl)c(C(F)(F)F)cc24)C3=O)cn1 (single isomer, unassigned) [Example 10] | 3
Cc1cn(-c2ccc3n(c2=O)CCN(C[C@@]24C[C@]2(C)Oc2cc(F)c(OC(F)F)cc24)C3=O)cn1 (single isomer, unassigned) [Example 12] | 17.8
Cc1cn(-c2ccc3n(c2=O)CCN(C[C@@]24C[C@]2(C)Oc2cc(F)c(C(F)(F)F)cc24)C3=O)cn1 (single isomer, unassigned) [Example 17] | 4.4
Cc1cn(-c2ccc3n(c2=O)CCN(C[C@]24C[C@@]2(C)Oc2cc(F)c(C(F)(F)F)cc24)C3=O)cn1 (single isomer, unassigned) [Example 18] | 20.2
Cc1cn(-c2ccc3n(c2=O)CCN(C[C@@]24C[C@]2(C)Oc2c(F)cc(C(F)(F)F)cc24)C3=O)cn1 (single isomer, unassigned) [Example 19] | 11.1
Cc1cn(-c2ccc3n(c2=O)CCN(C[C@]24C[C@@]2(C)Oc2c(F)cc(C(F)(F)F)cc24)C3=O)cn1 (single isomer, unassigned) [Example 20] | 50.1
Cc1cn(-c2ccc3n(c2=O)CCN(C[C@@]24C[C@]2(C)Oc2c(Cl)cc(C(F)(F)F)cc24)C3=O)cn1 (single isomer, unassigned) [Example 21] | 16
Cc1cn(-c2ccc3n(c2=O)CCN(CC24CC2Oc2ccc(C(F)(F)F)cc24)C3=O)cn1 (stereo not drawn) [Example 1, 7-(4-Methyl-1H-imidazol-1-yl)-2-{[5-(trifluoromethyl)-1,1a-dihydro-6bH-cyclopropa[b][1]benzofuran-6b-yl]methyl}-3,4-dihydro-2H-pyrido[1,2-a]pyrazine-1,6-dione] | 48.5
C[C@]12C[C@@]1(CN1CCn3c(ccc(-n4cnc(CO)c4)c3=O)C1=O)c1cc(OC(F)(F)F)c(F)cc1O2 [Example 14, 2-{[(1aS,6bS)-4-fluoro-1a-methyl-5-(trifluoromethoxy)-1,1a-dihydro-6bH-cyclopropa[b][1]benzofuran-6b-yl]methyl}-7-[4-(hydroxymethyl)-1H-imidazol-1-yl]-3,4-dihydro-2H-pyrido[1,2-a]pyrazine-1,6-dione] | 18.7
Cc1cn(-c2ccc3n(c2=O)CCN(C[C@]24C[C@@]2(C)Oc2ccc(C(F)(F)F)cc24)C3=O)cn1 [Example 16, 7-(4-methyl-1H-imidazol-1-yl)-2-{[(1aR,6bR)-1a-methyl-5-(trifluoromethyl)-1,1a-dihydro-6bH-cyclopropa[b][1]benzofuran-6b-yl]methyl}-3,4-dihydro-2H-pyrido[1,2-a]pyrazine-1,6-dione] | 47.3
Cc1cn(-c2ccc3n(c2=O)CCN(CC24CC2(C)Oc2ccc(OC(F)(F)F)cc24)C3=O)cn1 (stereo not drawn) [Example C22, 7-(4-methyl-1H-imidazol-1-yl)-2-{[1a-methyl-5-(trifluoromethoxy)-1,1a-dihydro-6bH-cyclopropa[b][1]benzofuran-6b-yl]methyl}-3,4-dihydro-2H-pyrido[1,2-a]pyrazine-1,6-dione] | 19.5
Cc1ncn(-c2ccc3n(c2=O)CCN(CC24CC2(C)Oc2cc(F)c(OC(F)(F)F)cc24)C3=O)n1 (stereo not drawn) [Example C44, 2-{[4-fluoro-1a-methyl-5-(trifluoromethoxy)-1,1a-dihydro-6bH-cyclopropa[b][1]benzofuran-6b-yl]methyl}-7-(3-methyl-1H-1,2,4-triazol-1-yl)-3,4-dihydro-2H-pyrido[1,2-a]pyrazine-1,6-dione] | 68.9

Further lines, results first:

IC50 [nM] | SMILES
4.9 | Cc1cn(-c2ccc3n(c2=O)CCN(C[C@@]24C[C@]2(C)Oc2c(F)cc(OC(F)(F)F)cc24)C3=O)cn1 (single isomer, unassigned) [Example 4]
36.6 | Cc1ncn(-c2ccc3n(c2=O)CCN(C[C@@]24C[C@]2(C)Oc2cc(F)c(OC(F)(F)F)cc24)C3=O)n1 (single isomer, unassigned) [Example 8]
519 | Cc1ncn(-c2ccc3n(c2=O)CCN(C[C@]24C[C@@]2(C)Oc2cc(F)c(OC(F)(F)F)cc24)C3=O)n1 (single isomer, unassigned) [Example 9]
10 | Cc1cn(-c2ccc3n(c2=O)CCN(C[C@]24C[C@@]2(C)Oc2cc(Cl)c(C(F)(F)F)cc24)C3=O)cn1 (single isomer, unassigned) [Example 11]
84.9 | Cc1cn(-c2ccc3n(c2=O)CCN(C[C@]24C[C@@]2(C)Oc2cc(F)c(OC(F)F)cc24)C3=O)cn1 (single isomer, unassigned) [Example 13]
58.3 | Cc1cn(-c2ccc3n(c2=O)CCN(C[C@]24C[C@@]2(C)Oc2c(Cl)cc(C(F)(F)F)cc24)C3=O)cn1 (single isomer, unassigned) [Example 22]
8.5 | Cc1cn(-c2ccc3n(c2=O)CCN(C[C@@]24C[C@]2(C)Oc2ccc(C(F)(F)F)cc24)C3=O)cn1 [Example 15, 7-(4-methyl-1H-imidazol-1-yl)-2-{[(1aS,6bS)-1a-methyl-5-(trifluoromethyl)-1,1a-dihydro-6bH-cyclopropa[b][1]benzofuran-6b-yl]methyl}-3,4-dihydro-2H-pyrido[1,2-a]pyrazine-1,6-dione]
11.2 | Cc1cn(-c2ccc3n(c2=O)CCN(CC24CC2(C)Oc2cc(F)c(OC(F)(F)F)cc24)C3=O)cn1 (stereo not drawn) [Example C40, 2-{[4-fluoro-1a-methyl-5-(trifluoromethoxy)-1,1a-dihydro-6bH-cyclopropa[b][1]benzofuran-6b-yl]methyl}-7-(4-methyl-1H-imidazol-1-yl)-3,4-dihydro-2H-pyrido[1,2-a]pyrazine-1,6-dione]
